Measurements reported in patent publication US20230227466A1, “SUBSTITUTED THIENOPYRIMIDINES THAT INTERACT WITH THE RAS SUPERFAMILY FOR THE TREATMENT OF CANCERS, INFLAMMATORY DISEASES, RASOPATHIES, AND FIBROTIC DISEASE” (SHY Therapeutics, LLC, priority 2020, published 2023).

How the values were obtained:
[1] = tested on: ERK1/2 phosphorylation in Panc-1 cells; experiment: Western ERK1/2 cell-based phosphorylation assay; parameters: species or system human; conditions: at 10 μM, values in brackets < > are activation %, not inhibition
Protocol: Cell lines: Human tumor-derived pancreatic cancer cell line Panc-1 was purchased from American Type Culture Collection and grown in complete DMEM-High Glucose, supplemented with penicillin (100 U/mL), streptomycin (100 μg/mL), and 10% heat-inactivated FBS at 37° C. in a humidified incubator with 5% CO2.
(§1) Method: Cells were plated at 350000 cells/well density in a 12-well plate, allowed 3 hours to adhere to the plate, then starved in the appropriate medium in the presence of 0.5% FBS overnight. The small molecules to be tested were added to the cells in the final concentration of 10 μM in the presence of 0.3% DMSO for 6 hours incubation at 37° C. For IC50 value determination, serial dilutions of compounds were added to cells under the same conditions. Next, cells were stimulated with 1.5 ng/ml EGF for 15 minutes then cells were lysed with lysis buffer containing 1% Triton X-100, EDTA, and Halt™ Protease & Phosphatase Inhibitor Cocktail (Thermo Scientific). Protein concentration was assessed by BCA protein assay (Thermo Scientific). Phosphorylation level of ERK1/2 was determined by western blot.
(§2) Western blot protocol: Equal amounts of protein (15-50 μg) were separated by SDS-PAGE and transferred to nitrocellulose membranes (Invitrogen by Thermo Fisher Scientific). The membrane was stained with Ponceau S Stain (Boston BioProducts) to verify uniform protein loading. Membranes were blocked with 10% milk and phosphorylation levels of ERK1/2 were assessed by incubating overnight at 4° C. with anti-phospho-p44/42 (Thr202/Tyr204) antibody (Cell Signaling) followed by HRP-conjugated secondary antibody (Jackson Immunoresearch, West Grove, Pa.). Bands were incubated in Amersham ECL Prime Western Blotting Detection Reagent (GE Healthcare) and visualized using the ChemiDoc MP imaging system (Bio-Rad). Protocol for Western AKT cell-based phosphorylation assay

[2] = tested on: Akt phosphorylation in Panc-1 cells; experiment: Western AKT cell-based phosphorylation assay; parameters: species or system human; conditions: at 10 μM, values in brackets < > are activation %, not inhibition
Protocol: Human Tumor-Derived Pancreatic Cancer Cell Line Panc-1 was Purchased from
American Type Culture Collection and grown in complete DMEM-High Glucose supplemented with penicillin (100 U/mL), streptomycin (100 μg/mL), and 10% heat-inactivated FBS at 37° C. in a humidified incubator with 5% CO2.
as §1, with “C.” for “C. For IC50 value determination, serial dilutions of compounds were added to cells under the same conditions.”, “Akt” for “ERK1/2”
as §2, with “Akt” for “ERK1/2”, “anti-phospho-Akt (Ser473)” for “anti-phospho-p44/42 (Thr202/Tyr204)”, “(Bio-Rad).” for “(Bio-Rad). Protocol for Western AKT cell-based phosphorylation assay”

SMILES	% inh of ERK1/2 phosphorylation in PANC-1 [1]	% inh of AKT phosphorylation in PANC-1 [2]
CO[C@H]1CC[C@@H](Nc2nc(-c3nccn3C)nc3sc(-c4ccn(C(C)C)n4)c(C(F)(F)F)c23)C1 (racemic) [Compound 73, Rac-6-(1-isopropyl-1H-pyrazol-3-yl)-N-((1R,3S)-3-methoxycyclopentyl)-2-(1-methyl-1H-imidazol-2-yl)-5-(trifluoromethyl)thieno[2,3-d]pyrimidin-4-amine]	D (76-100% inhibition)	A (1-25% inhibition)
COCC1CCN(c2nc(-c3nccn3C)nc3sc(-c4ccn(C(C)C)n4)c(C(F)(F)F)c23)C1 (racemic) [Compound 74, Rac-6-(1-Isopropyl-1H-pyrazol-3-yl)-4-(3-(methoxymethyl)pyrrolidin-1-yl)-2-(1-methyl-1H-imidazol-2-yl)-5-(trifluoromethyl)thieno[2,3-d]pyrimidine]	D (76-100% inhibition)	0 (0% inhibition)
COC1CCCN(c2nc(-c3nccn3C)nc3sc(-c4ccn(C(C)C)n4)c(C(F)(F)F)c23)C1 (racemic) [Compound 75, Rac-6-(1-Isopropyl-1H-pyrazol-3-yl)-4-(3-methoxypiperidin-1-yl)-2-(1-methyl-1H-imidazol-2-yl)-5-(trifluoromethyl)thieno[2,3-d]pyrimidine]	D (76-100% inhibition)	0 (0% inhibition)
COCC1CCN(c2nc(-c3nccn3C)nc3sc(-c4ccn(C(C)C)n4)c(-c4ccccc4)c23)C1 (racemic) [Compound 76, Rac-6-(1-isopropyl-1H-pyrazol-3-yl)-4-(3-(methoxymethyl)pyrrolidin-1-yl)-2-(1-methyl-1H-imidazol-2-yl)-5-phenylthieno[2,3-d]pyrimidine]	D (76-100% inhibition)	0 (0% inhibition)
COC1CCCN(c2nc(-c3nccn3C)nc3sc(-c4ccn(C(C)C)n4)c(-c4ccccc4)c23)C1 (racemic) [Compound 77, Rac-6-(1-isopropyl-1H-pyrazol-3-yl)-4-(3-methoxypiperidin-1-yl)-2-(1-methyl-1H-imidazol-2-yl)-5-phenylthieno[2,3-d]pyrimidine]	B (26-50% inhibition)	<A>
CO[C@H]1CC[C@@H](Nc2nc(-c3nccn3C)nc3sc(-c4cc[nH]n4)c(-c4ccccc4)c23)C1 (racemic) [Example 1, Rac-N-((1R,3S)-3-methoxycyclopentyl)-2-(1-methyl-1H-imidazol-2-yl)-5-phenyl-6-(1H-pyrazol-3-yl)thieno[2,3-d]pyrimidin-4-amine]	0 (0% inhibition)	0 (0% inhibition)
CO[C@H]1CC[C@@H](Nc2nc(-c3nccn3C)nc3sc(-c4ccn(C(C)C)n4)c(-c4ccccc4)c23)C1 [Compound 5, 6-(1-Isopropyl-1H-pyrazol-3-yl)-N-((1R,3S)-3-methoxycyclopentyl)-2-(1-methyl-1H-imidazol-2-yl)-5-phenylthieno[2,3-d]pyrimidin-4-amine]	D (76-100% inhibition)	D (76-100% inhibition)
COCCn1ccnc1-c1nc(N[C@H]2C[C@@H](OC)C2)c2c(-c3ccccc3)c(-c3ccn(C)n3)sc2n1 [Compound 7, N-((1s,3s)-3-Methoxycyclobutyl)-2-(1-(2-methoxyethyl)-1H-imidazol-2-yl)-6-(1-methyl-1H-pyrazol-3-yl)-5-phenylthieno[2,3-d]pyrimidin-4-amine]	D (76-100% inhibition)	0 (0% inhibition)
COCCn1ccnc1-c1nc(N[C@H]2C[C@@H](OC)C2)c2ccsc2n1 [Compound 9, N-((1s,3s)-3-Methoxycyclobutyl)-2-(1-(2-methoxyethyl)-1H-imidazol-2-yl)thieno[2,3-d]pyrimidin-4-amine]	0 (0% inhibition)	0 (0% inhibition)
NC(=O)c1nc(O)c2scc(-c3ccccn3)c2n1 [Compound 18, 4-Hydroxy-7-(pyridin-2-yl)thieno[3,2-d]pyrimidine-2-carboxamide]	0 (0% inhibition)	0 (0% inhibition)
O=C(c1nc(O)c2scc(-c3ccccn3)c2n1)N1CCCC1 [Compound 19, (4-Hydroxy-7-(pyridin-2-yl)thieno[3,2-d]pyrimidin-2-yl)(pyrrolidin-1-yl)methanone]	0 (0% inhibition)	0 (0% inhibition)
CC(C)NC(=O)c1nc(O)c2scc(-c3ccccn3)c2n1 [Compound 20, 4-Hydroxy-N-isopropyl-7-(pyridin-2-yl)thieno[3,2-d]pyrimidine-2-carboxamide]	0 (0% inhibition)	0 (0% inhibition)
COCCNC(=O)c1nc(O)c2scc(-c3ccccn3)c2n1 [Compound 21, 4-Hydroxy-N-(2-methoxyethyl)-7-(pyridin-2-yl)thieno[3,2-d]pyrimidine-2-carboxamide]	0 (0% inhibition)	0 (0% inhibition)
O=C(c1nc(O)c2scc(-c3ccccn3)c2n1)N1CCOCC1 [Compound 22, (4-Hydroxy-7-(pyridin-2-yl)thieno[3,2-d]pyrimidin-2-yl)(morpholino)methanone]	0 (0% inhibition)	0 (0% inhibition)
O=C(Nc1ccccc1)c1nc(O)c2scc(-c3ccccn3)c2n1 [Compound 23, 4-Hydroxy-N-phenyl-7-(pyridin-2-yl)thieno[3,2-d]pyrimidine-2-carboxamide]	0 (0% inhibition)	0 (0% inhibition)
O=C(Nc1ccccn1)c1nc(O)c2scc(-c3ccccn3)c2n1 [Compound 24, 4-Hydroxy-N,7-di(pyridin-2-yl)thieno[3,2-d]pyrimidine-2-carboxamide]	0 (0% inhibition)	0 (0% inhibition)
Cc1sc2c(O)nc(-c3ccccn3)nc2c1-c1ccccn1 [Compound 26, 6-Methyl-2,7-di(pyridin-2-yl)thieno[3,2-d]pyrimidin-4-ol]	0 (0% inhibition)	0 (0% inhibition)
Cn1ccnc1-c1nc(O)c2scc(-c3ncccc3F)c2n1 [Compound 30, 7-(3-Fluoropyridin-2-yl)-2-(1-methyl-1H-imidazol-2-yl)thieno[3,2-d]pyrimidin-4-ol]	0 (0% inhibition)	0 (0% inhibition)
CO[C@@H]1CC[C@H](Nc2nc(-c3nccn3C)nc3sc(-c4ccn(C(C)C)n4)c(C)c23)C1 [Compound 31, 6-(1-Isopropyl-1H-pyrazol-3-yl)-N-((1S,3R)-3-methoxycyclopentyl)-5-methyl-2-(1-methyl-1H-imidazol-2-yl)thieno[2,3-d]pyrimidin-4-amine]	D (76-100% inhibition)	0 (0% inhibition)
